Laboratory results: patent US7897559B2, “Dermatological composition and kit containing avermectin compound for treating dermatological conditions” (priority 2000, dated 2011)

How the values were obtained:
[1] = tested on: head lice; details: after a single topical application; cited from earlier work
[2] = oral dosage of a moderate ivermectin concentration; cited from earlier work
[3] = tested on: transient acantholytic dermatitis, acne miliaris necrotica, acne varioliformis, perioral dermatitis, acneiform eruptions, acne vulgaris, seborrheic dermatitis; assay: Informal clinical trial of topical ivermectin across the dermatological conditions; format: in vivo, human
Text: In a preferred embodiment, ivermectin is used because it is readily available commercially. The concentration of ivermectin in the dermatological composition for the purpose of the present invention can be in a broad range from about 0.05% to 8% weight by volume (w/v).
The treatment method using ivermectin dermatological composition for each of these dermatological conditions is similar. Preferably, in an initial treatment of these dermatological conditions the ivermectin dermatological composition can be applied topically from one to several times daily for a period of from about one week to several weeks, to substantially control the condition and clear the lesions. The initial dosage, including frequency of the topical application, ivermectin concentration of the dermatological composition, and the length of the initial treatment period can be determined depending on a specific disease, severity of the disease, and the response of the patient to the medication. For example, acne miliaris necrotica is more difficult to treat, and it frequently requires an initial treatment of three weeks or longer. While perioral dermatitis patients can respond to ivermectin treatment rapidly, and healing of lesions can occur in less than two weeks. After the initial treatment, a maintenance dosage, that has less frequent application, and/or a dermatological composition with less concentration of ivermectin, can be used for maintaining the condition.
(§1) Examples 4 to 12 illustrate clinical effectiveness of the method of the present invention.

[4] = Safety and tolerability observed in the informal trials of topical ivermectin; format: in vivo, human; details: informal clinical trial, topical application, any body locations
Text: It is known that some of the diseases, such as perioral dermatitis, the skin on the eyelids can be affected. To treat eyelids, a high concentration of the medicine should be avoided to prevent irritation of the eyes.
as §1

[5] = informal clinical trial, topical application to affected skin

ivermectin
curative effect on head lice [1]: absolute curative effect
safety in human [2]: safe in human, without serious adverse side effects
dermal infection of the affected area [3, 5]: controls dermal infection of the affected area
inflammation of the affected area [3, 5]: controls inflammation of the affected area
itching and skin irritation caused by the conditions [3, 5]: removes itching and skin irritation
lesions [3, 5]: clears up lesions
clinical effectiveness ([3]; lotion or cream, ivermectin concentration as low as 0.075%): clinically effective
side effects [4]: no side effects observed in any body locations
